Measurements published in patent US9986723B2, “Screen and use of therapeutics for pancreatic ductal adenocarcinoma” (The Board of Regents of the University of Texas System, priority 2014, dated 2018).

Assays:
Pan02 tumors = experiment: Low dose warfarin in drinking water, syngenic orthotopic model; format: in vivo, mouse; settings: warfarin 0.5 mg/L drinking water
Protocol: (§1) (FIG. 23A) Primary tumor burden after therapy with warfarin. Therapy was initiated when implanted tumors were visible by ultrasound (˜10 mm^3) and consisted of control (normal drinking water) or warfarin, administered in the drinking water at 0.5 mg/L (immunocompetent mice: Pan02 (n=4, control; 3, warfarin), KIC (n=10, control; 8, warfarin)) or 1 mg/L (Panc-1 (n=10, control; 8, warfarin), AsPC-1 (n=8, control; 6, warfarin), Capan-1 (n=10, control; 7, warfarin)) and continued for 2-4 weeks until control mice were moribund. Therapy in KIC mice was initiated at 3 weeks of age and continued for 4 weeks. (FIG. 23B) Metastases were determined grossly upon sacrifice and confirmed by histological evaluation of the liver. […] Incidence of metastasis is also indicated. […] Tumor volume determined by serial ultrasound. […] Therapy with mAb 10C9 (250 μg 2×/week) was initiated when tumors were established as above and persisted for 4 weeks. […] Error bars indicate s.e.m.
(§2) Animal studies. […] Mice with established tumors, as determined by sonography were randomized to receive normal drinking water or water containing 1 mg/L (˜3.0 μM) warfarin for experiments in immunocompromised mice and 0.5 mg/L (˜1.5 μM) in experiments in immunocompetent animals with or without gemcitabine 25 mg/kg twice weekly depending on experimental design.

KIC tumors = experiment: Low dose warfarin in drinking water, spontaneous genetic PDA model; format: in vivo, mouse; settings: warfarin 0.5 mg/L drinking water, 4 weeks from 3 weeks of age
Protocol: as §1, §2

AsPC1 tumors = experiment: Low dose warfarin in drinking water, orthotopic human tumor xenograft; format: in vivo, mouse; settings: warfarin 1 mg/L drinking water
Protocol: as §1
(§3) Animal studies. All animals were housed in a pathogen-free facility with 24-hour access to food and water. Experiments were approved by, and conducted in accordance with, an IACUC approved protocol at UT Southwestern. LSL-Kras^G12D; Cdkn2a^lox/lox; p48^Cre (KIC) mice were generated as previously described (Ostapoff et al., 2014). Four- to 6-week-old female NOD/SCID and C57/B16 mice were obtained from an on campus supplier. A total of 1×10^6 AsPc-1, Panc-1, Mia Paca2, Capan-1, C5LM2, Mia shLuc and Mia shAxl or 5×10^5 Pan02 cells, were injected orthotopically as described (Ostapoff et al., 2014). Mice with established tumors, as determined by sonography were randomized to receive normal drinking water or water containing 1 mg/L (˜3.0 μM) warfarin for experiments in immunocompromised mice and 0.5 mg/L (˜1.5 μM) in experiments in immunocompetent animals with or without gemcitabine 25 mg/kg twice weekly depending on experimental design.

Capan-1 tumors = experiment: as above; format: in vivo, mouse
Protocol: as §1, §3

[1] = test system: pancreatic ductal adenocarcinoma (PDA) metastases; experiment: Metastatic burden in five murine models of PDA under low dose warfarin; format: in vivo, mouse; settings: four of the five PDA models; warfarin 0.5-1 mg/L drinking water
Protocol: as §1, §2

Gas6 = Gas6 γ-carboxylation in conditioned media of HEK293 cells expressing recombinant Gas6 (immunoblot); format: cell-based; settings: Vitamin K + warfarin, in vitro
Protocol: (§4) (FIG. 24A) HEK293 cells engineered to stably express recombinant Gas6 were grown in the presence of Vitamin K or Vitamin K+warfarin. Gas6 levels and γ-carboxylation were assayed by immunoblotting conditioned media. Conditioned media from untransfected HEK293 cells was used as a negative control. (FIG. 24B) Panc1 cells were grown overnight in media with 1% serum with no additions (NT), warfarin (2 μM) or BGB324 (2 μM). Lysates were probed for total Axl (tAxl) and phosphorylated Axl (pAxl). (FIG. 24C) Panc1 cells were grown in the presence of control media, Vitamin K, warfarin or warfarin+Vitamin K. The level of phosphorylated Axl (pAXL, red) was determined by immunofluorescence. (FIG. 24D) Panc1 cells were grown overnight in media with 1% serum with no additions (control), warfarin (1 μM), Gas6 (1.3 nM) or Gas6+warfarin. Lysates were probed for phosphorylated Akt (pAkt) and actin. (FIG. 24E) Lysates from Panc1 tumors harvested from mice treated with control or warfarin were probed for expression of tAxl, pAxl, actin, pAKT, tAKT, and cleaved Parp. (FIG. 24F) The effect of warfarin on cell migration was assessed by a ‘scratch’ assay. Monolayers of the indicted cells were wounded with a pipet tip. The cells were incubated in media containing 2% serum+/−warfarin (2 μM) or media containing 2% serum+Gas6 (1.3 nM)+/−warfarin.

AKT = experiment: Gas6-induced phosphorylated Akt in Panc1 cells; format: cell-based, human; settings: warfarin 1 μM, Gas6 1.3 nM
Protocol: as §4

Capan-EMT cells = Capan-EMT cells (Capan-1 on collagen with TGFβ), ICC; format: cell-based, human; settings: SFM overnight
Protocol: FIGS. 32A-C. Acquisition of Axl expression sensitizes Capan-EMT cells to warfarin. (FIG. 32A) Capan-1 cells cultured on collagen were analyzed by flow cytometry for Axl expression. The positive gate was set using a control IgG and 10C9 was used to detect Axl. […] (FIG. 32B) Capan-EMT cells were cultured in SFM overnight in the absence (control) or presence of warfarin and expression Axl, E-Cadherin, and cleaved caspase 3 was determined by ICC. Representative images are shown. (FIG. 32C) The expression Zeb1, Snail, and Twist was determined by qPCR in Capan-1 and Capan-EMT cells.
In vitro epithelial to mesenchymal transition assays. In vitro, mesenchymal transition was induced by incubating cells on chamber slides coated with collagen and adding TGF-β (20 ng/ml) to media with 5% serum for 48 hours. Media was then replaced with 1% serum and fresh TGF-β with or without warfarin (2 μM) for an additional 48 hours. Cells were the evaluated by immunocytochemistry by fixing in acetone, permeabilizing with 0.5% Brij, and incubating overnight with primary antibody: Axl, p-Axl, (R&D Systems); Vimentin (phosphoSolutions); Zeb1, E-Cadherin, and β-Catenin (Santa Cruz). The effect of Gas6 signaling on EMT was evaluated by seeding cells overnight and incubating with Gas6 (100 ng/ml) with or without warfarin for 48 hours. Cells were evaluated by ICC as described.

In the case of `CC(=O)CC(c1ccccc1)c1c(O)c2ccccc2oc1=O` (racemic) [Warfarin], the primary tumor growth (Pan02 tumors) is reported as “reduced primary tumor growth”, the primary tumor growth (KIC tumors) is reported as “reduced primary tumor growth” and the primary tumor growth (AsPC1 tumors) is reported as “little effect”. The “response of tumors to warfarin” value (Capan-1 tumors; no detectable Axl expression) was “nonresponsive”, the primary tumor growth (Capan-1 tumors; warfarin 1 mg/L drinking water) was “little effect” and the metastatic burden [1] was “consistently and potently inhibited metastatic burden”. The “γ-carboxylation of Gas6” value (Gas6) was “prevented”, the “Gas6-induced activation of AKT” value (AKT) was “inhibited” and the “sensitivity to warfarin (Axl, E-cadherin, cleaved caspase-3)” value (Capan-EMT cells) was “sensitive”.
